Legend:
ACAT of HepG2 microsome = test: In-vitro test using Hep G2 microsome (ACAT inhibition); type: biochemical, human
Protocol: (1) In-vitro Test Using Hep G2 Microsome
ACAT enzyme fraction was prepared from microsome of human derived hepatoma Hep G2 cell according to Sandra's method [Journal of Lipid Research, 27, 875 (1986)].
Microsome was suspended at a concentration of 200 μg protein/20 μl in 0.1M phosphate buffer solution (pH7.4) and the suspension was preincubated at 37° C. for 5 minutes after addition of 10 μl of each test compound dissolved in 0.1M phosphate buffer solution containing bovine serum albmin (BSA). Then, the reaction was initiated by the addition of 5 nmoles of labeled [^14 C]-oleoyl-CoA dissolved in 20 μl of the said phosphate buffer solution containing BSA and the reaction was stopped by the addition of 20 μl of 2N HCl after 10 minutes. [^14 C] cholesterol-oleate formed was separated by thin-layer chromatography and the radioactivity was counted with liquid scintillation counter.
(§1) ACAT inhibitory activities of the test compounds were shown as IC50 values.

[1] = Acute toxicity, male ICR strain mouse; type: in vivo; conditions: 1000 mg/kg orally, seven days after administration
Protocol: (1) Acute toxicity: Nine compounds (Example Nos. 1, 2, 5, 6, 12, 19, 28, 31 and 45) were tested by using male ICR strain mouse weighing 23.0±0.7 g.

ACAT of THP-1 cells = target: T1, ACAT of THP-1 cells (Homo sapiens, UniProt P35610); test: In-vitro test using THP-1 intact cell (ACAT inhibition); type: cell-based; conditions: read-out: IC50 THP1 (intact cell)
T1 construct: differentiated into macrophage-like cells by phorbol ester; endogenous in cells; host or cells: THP-1 (human leukemia), intact cells differentiated by phorbol ester
T1 sequence (P35610 1-550): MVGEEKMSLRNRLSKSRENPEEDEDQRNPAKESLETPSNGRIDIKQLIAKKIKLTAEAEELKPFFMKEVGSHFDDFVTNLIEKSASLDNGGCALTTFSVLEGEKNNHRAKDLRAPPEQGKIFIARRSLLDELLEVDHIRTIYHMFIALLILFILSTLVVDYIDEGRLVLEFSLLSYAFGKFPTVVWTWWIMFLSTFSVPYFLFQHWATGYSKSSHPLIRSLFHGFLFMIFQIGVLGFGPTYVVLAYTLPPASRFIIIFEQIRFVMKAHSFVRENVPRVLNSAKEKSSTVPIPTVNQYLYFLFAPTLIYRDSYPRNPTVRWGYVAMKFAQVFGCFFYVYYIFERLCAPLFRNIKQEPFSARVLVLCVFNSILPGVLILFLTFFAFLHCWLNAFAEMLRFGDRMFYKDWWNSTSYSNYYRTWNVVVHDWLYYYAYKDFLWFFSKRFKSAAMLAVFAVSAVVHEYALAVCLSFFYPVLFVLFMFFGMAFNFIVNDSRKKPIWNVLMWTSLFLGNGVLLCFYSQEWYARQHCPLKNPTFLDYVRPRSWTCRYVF
Protocol: (2) In-vitro Test Using THP-1 Intact Cell
About 2 million cells of human leukemia cell line, THP-1 were seeded in a well with 2 ml of medium and differentiated into macrophage-like cells by phorbol ester. Then, the cells were washed with phosphate-buffered saline (PBS) solution and the medium was replaced by fresh medium supplemented with 10% of lipoprotein-deficient serum. After the addition of each test compound dissolved in dimethyl sulfoxide and 100 μg protein-containing human low density lipoprotein (LDL), the reaction was initiated by the addition of 10 nmoles of labeled [^14 C]oleic acid and 10 nmoles of oleic acid complexed with BSA in PBS solution. After 22 hours, the reaction was stopped by removal the medium and CHCl3 -MeOH (2:1) were added to the cell suspension in order to extract lipids.
Intracellular [^14 C] cholesterol-oleate formed was separated by thin-layer chromatography and the radioactivity was counted with lipid scintillation counter.
as §1

THP-1 microsomal ACAT [2] = target: T2, THP-1 microsomal ACAT (Homo sapiens, UniProt P35610); test: Bioavailability assessment of ACAT inhibitors by their ex vivo activity (serum of dosed mice on THP-1 microsomal ACAT); type: in vivo; conditions: female mice, 30 mg/kg per os, 1% CMC-Na 0.2% Tween 80; maximum inhibition by serum
T2 construct: ACAT enzyme fraction was prepared from microsome of human leukemia THP-1 cell; endogenous in cells; host or cells: THP-1 (human leukemia), microsomes
T2 sequence (P35610 1-550): T1 sequence (P35610 1-550)
Protocol: (5) Bioavailability Assessment of ACAT Inhibitors by Their <<ex vivo>> Activity
[…] Blood samples were collected 0.5, 1, 1.5, 2, 6 hour postdose. Serum were harvested after gentle centrifugation and stored at -20.
The following day, 10 μl serum were preincubated at 37 for 5 minutes with 20 μl of THP-1 microsomal ACAT and then incubated 10 minutes with 20 μl of radiolabeled oleoyl-CoA as described above in method (4). The serum is used instead of the drug solution.
ACAT inhibitory activities of the test compounds were shown as maximum inhibition percentages (Imax).

THP-1 microsomal ACAT [3] = target: T2, THP-1 microsomal ACAT; test: In vitro test using THP-1 microsome (ACAT inhibition); type: biochemical; conditions: THP-1 microsome; read-out: IC50 THP1 microsome
Protocol: (4) In Vitro Test Using THP-1 Microsome
Then, the reaction was initiated by the addition of 5 nmoles of labeled [^14 C] oleoyl-CoA dissolved in 20 μl of said phosphate buffer solution containing BSA and the reaction was stopped by the addition of 20 μl of 2N HCl after 10 minutes. [^14 C] cholesterol-oleate formed was separated by thin-layer chromatography and the radioactivity was counted with liquid scintillation counter.

ACAT of macrophages = test: In vivo test using peritoneal macrophages in C57BL/6J mice (ACAT inhibition); parameters: species or system mouse; conditions: female C57BL/6J mice, 30 mg/kg/day per os for 4 days
Protocol: (6) In Vivo Test Using Peritoneal Macrophages in C57BL/6J Mice
A standard pellet diet fed female C57BL/6J mice were administered at 10 a.m. per os 30 mg/kg/day of oral suspension (1% CMC-Na 0.2% Tween 80) for 4 days. Thioglycollate and [^14 C] cholesterol were injected […], mice were sacrificed for the collection of peritoneal macrophages. Lipid was extracted, formed [^14 C] cholesterol-ester was separated by thin-layer chromatography and radioactivity was counted as described above in method (3).
In vivo ACAT inhibitory activities on macrophages were expressed as percentage of inhibition compared to control group.

| Imax Ex vivo (THP-1 microsomal ACAT [2]) | IC50 (THP-1 microsomal ACAT [3]) | SMILES | IC50 (ACAT of HepG2 microsome) | macroscopic changes on any organs at autopsy [1] | IC50 (ACAT of THP-1 cells) | Inhibition rate (macrophages) (ACAT of macrophages; Experiment 1) | Inhibition rate (macrophages) (ACAT of macrophages; Experiment 2) |
| --- | --- | --- | --- | --- | --- | --- | --- |
|  |  | CCCCNC(=O)Nc1ccccc1C(=O)NCC1CCN(C(c2ccccc2)c2ccccc2)CC1 [Example 2, 2-(N'-n-Butylureido)-N-[(1-diphenylmethylpiperidin-4-yl)methyl]benzamide] | 1000 nM | no macroscopic changes were observed | 100 nM |  |  |
|  |  | CCCCCNC(=O)Nc1ccccc1C(=O)NCC1CCN(C(c2ccccc2)c2ccccc2)CC1 [Example 3, 2-(N'-n-Pentylureido)-N-[(1-diphenylmethylpiperidin-4-yl)methyl]benzamide] | 900 nM |  | 100 nM |  |  |
|  |  | CCCCCCNC(=O)Nc1ccccc1C(=O)NCC1CCN(C(c2ccccc2)c2ccccc2)CC1 [Example 4, 2-(N'-n-Hexylureido)-N-[(1-diphenylmethylpiperidin-4-yl)methyl]benzamide] | 900 nM |  | 90 nM |  |  |
|  |  | CCCCCCCCNC(=O)Nc1ccccc1C(=O)NCC1CCN(C(c2ccccc2)c2ccccc2)CC1 [Example 6, 2-(N'-n-Octylureido)-N-[(1-diphenylmethylpiperidin-4-yl)methyl]benzamide] | 1600 nM | no macroscopic changes were observed | 50 nM |  |  |
|  |  | CCCCCCCCCCNC(=O)Nc1ccccc1C(=O)NC1CCN(C(c2ccccc2)c2ccccc2)CC1 [Example 12, 2-(N'-n-Decylureido)-N-(1-diphenylmethylpiperidin-4-yl)benzamide] | 8000 nM | no macroscopic changes were observed | 700 nM |  |  |
|  |  | CCCCCCCNC(=O)Nc1ccc(O)cc1C(=O)NCCC(c1ccccc1)c1ccccc1 [Example 19, 2-(N'-n-Heptylureido)-5-hydroxy-N-(3,3-diphenylpropyl)benzamide] | 3600 nM | no macroscopic changes were observed | 100 nM |  |  |
|  |  | CCCCCCCNC(=O)Nc1ccccc1C(=O)NCCC1CCN(C(c2ccccc2)c2ccccc2)CC1 [Example 28, 2-(N'-n-Heptylureido)-N-[2-(1-diphenylmethylpiperidin-4-yl)ethyl]benzamide] | 1200 nM | no macroscopic changes were observed | 100 nM |  |  |
|  |  | CCCCCNC(=O)Nc1ccccc1C(=O)NCCC1CCN(C(c2ccccc2)c2ccccc2)CC1 [Example 29, 2-(N'-n-Pentylureido)-N-[2-(1-diphenylmethylpiperidin-4-yl)ethyl]benzamide] | 1600 nM |  | 200 nM |  |  |
|  |  | CCCCCCNC(=O)Nc1ccccc1C(=O)NCCC1CCN(C(c2ccccc2)c2ccccc2)CC1 [Example 30, 2-(N'-n-Hexylureido)-N-[2-(1-diphenylmethylpiperidin-4-yl)ethyl]benzamide] | 1200 nM |  | 200 nM |  |  |
|  |  | CCCCCCCNC(=O)Nc1ccc(N(C)C)cc1C(=O)NC1CCN(C(c2ccccc2)c2ccccc2)CC1 [Example 31, 2-(N'-n-Heptylureido)-5-dimethylamino-N-(1-diphenylmethylpiperidin-4-yl)-benzamide] | 800 nM | no macroscopic changes were observed | 200 nM |  |  |
|  |  | CCCCCCCNC(=O)Nc1ccccc1C(=O)NC1CCN(C(c2ccccc2)c2ccccc2)CC1 [Example 45, 2-(N'-n-Heptylureido)-N-(1-diphenylmethylpiperidin-4-yl)benzamide] | 2800 nM | no macroscopic changes were observed | 800 nM |  |  |
| 68.52% | 50 nM | CCCCNC(=O)Nc1ccc(N(C)C)cc1C(=O)NCC1CCN(C(c2ccccc2)c2ccccc2)CC1 [Example 63, 2-(N'-n-Butylureido)-5-dimethylamino-N-[(1-diphenylmethylpiperidin-4-yl)-methyl]-benzamide] |  |  |  | 72.3% | 61.0% |
| 77.59% | 80 nM | CCCNC(=O)Nc1ccc(N(C)C)cc1C(=O)NCC1CCN(C(c2ccccc2)c2ccccc2)CC1 [Example 66, 5-Dimethylamino-2-(N'-n-propylureido)-N-[(1-diphenylmethylpiperidin-4-yl)methyl]-benzamide] |  |  |  | 73.5% |  |
|  | 60 nM | CCCCNC(=O)Nc1ccc(N2CCOCC2)cc1C(=O)NCC1CCN(C(c2ccccc2)c2ccccc2)CC1 [Example 70, 2-(N'-n-Butylureido)-5-(morpholin-4-yl)-N-[(1-diphenylmethylpiperidin-4-yl)methyl]-benzamide] |  |  |  |  | 73.0% |
| 81.1% | 90 nM | CCCNC(=O)Nc1ccc(N2CCOCC2)cc1C(=O)NCC1CCN(C(c2ccccc2)c2ccccc2)CC1 [Example 71, 5-(Morpholin-4-yl)-2-(N'-n-propylureido)-N-[(1-diphenylmethylpiperidin-4-yl)methyl]-benzamide] |  |  |  |  | 73.5% |
| 20.45% | 80 nM | CCCCCCCNC(=O)Nc1ccc(N(C)C)cc1C(=O)NCC1CCN(Cc2ccccc2-c2ccccc2)CC1 [Example 96, 2-(N'-n-Heptylureido)-5-dimethylamino-N-[1-(2-biphenylmethylpiperidin-4-yl)methyl]-benzamide] |  |  |  |  |  |
| 39.01% | 40 nM | CCCCCNC(=O)Nc1ccc(N(C)C)cc1C(=O)NCC1CCN(C(c2ccccc2)c2ccccc2)CC1 [Example 100, 5-Dimethylamino-2-(N'-n-pentylureido)-N-[(1-diphenylmethylpiperidin-4-yl)methyl]benzamide] |  |  |  |  |  |
| 63.56% | 90 nM | CCCCNC(=O)Nc1ccc(S(C)(=O)=O)cc1C(=O)NCC1CCN(C(c2ccccc2)c2ccccc2)CC1 [Example 111 (b), 2-(N'-n-butylureido)-5-methylsulfonyl-N-[(1-diphenylmethylpiperidin-4-yl)-methyl]benzamide] |  |  |  |  |  |
